# Assay results as given in patent US12715851B2, “4′-substituted analogues of fisetin and their use in the treatment of cancer” (Stellenbosch University, priority 2020, dated 2026).
# Entries after “also recorded” stand apart in the source; their conditions may differ.
# Assays:
# [1] = tested on: A549 lung cancer cell line; experiment: MTT cell proliferation assay, cytotoxicity after 48 h treatment; type: cell-based, human
# Experimental: These 4′-substituted Fisetin analogues were initially screened for cytotoxicity against the A549 lung cancer cell line following a 48 h treatment period. Cytotoxicity IC50's were quantified using the MTT cell proliferation assay. The compounds were not found to interfere with the assay by causing an increase in background absorbance, no correlation was found between the lipophilicity and cytotoxicity at this position, and the substituent size was also not found to be important.
# [2] = tested on: A549 cells; experiment: Western blot of signalling, cell cycle and apoptosis markers; type: cell-based, human; details: IC50 concentration and 20 μM
# Source text: Similarly, in H1299 cells analogue 3a induced a 11.7 to 14.9% cell death (FIG. 4D right) compared to 3.8% in control cells. Analogue 3c (FIG. 4E right) and analogue 3e (FIG. 4F right) induced cell death of 8.2 to 15.1% and 8.8 to 16.6% respectively. For western blot experiments, two concentrations were used, i.e. the IC50 concentration and the next higher concentration utilized for cell proliferation for each cell line.
# The expression of pro-oncogenic signalling molecules, which are involved in proliferation and survival of cancer cells, were evaluated.
# The effect of the Fisetin analogues on molecular markers of apoptosis was assessed.
# [3] = tested on: A549; experiment: Cell cycle distribution, propidium iodide flow cytometry; type: cell-based, human; details: 48 h
# Experimental: (§1) To examine the effect of Fisetin analogues on cell cycle regulation, cells were treated with different concentrations of Fisetin analogues (5, 10 & 20 μM) for 48 h, then stained with propidium iodide and subjected to flow cytometry. All three of the tested Fisetin analogues induced G2/M phase cell cycle arrest in A549 (FIGS. 5A-5C) and H1299 human lung cancer cells (FIGS. 5D-5F).
# [4] = tested on: H1299 human lung cancer cells; experiment: as above; type: cell-based; details: H1299, 48 h
# Experimental: as §1
# [5] = tested on: A549; experiment: Apoptosis assay; type: cell-based, human; details: 48 h, control cells 4.7%
# Source text: (§2) In A549, analogue 3a induced 8.2 and 11.2% apoptosis, analogue 3c induced 13.4 and 17.2% apoptosis, and analogue 3e induced 10.6 to 19.5% apoptosis compared to 4.7% in control cells (FIG. 6A).
# [6] = tested on: H1299 cancer cells; experiment: Apoptosis assay; type: cell-based, human; details: 48 h
# Source text: [Worded in the source for another cell line; used here, by the source, with some conditions changed.] as §2
# [7] = Acute toxicity, fed orally for two weeks; type: in vivo; details: Fisetin 50 mg/kg, 3c 25 and 50 mg/kg body weight
# Experimental: Fisetin analogue 3c was used to assess the potential toxicity of these analogues in a pre-clinical model. To test the acute toxicity, Fisetin (50 mg/kg body weight), analogue 3c (25 mg/kg and 50 mg/kg body weight), and vehicle control (5% DMSO, 45% PEG-300 and 50% saline) was fed orally for two weeks. Abnormal clinical signs such as decreased motor activity, sensory reflection, body weight, food intake, and water intake were monitored during the treatment period. An increase in body weight was observed among all groups throughout the treatment period (FIG. 7A). […] This variation could be due to consistent frequency of dosage.
# [8] = tested on: lipid peroxidation (MDA formation); experiment: Hepatotoxicity: lipid peroxidation assay on microsomal liver fraction (TBARS); type: in vivo, swiss albino mice; details: microsomal liver fraction of treated mice
# Experimental: (§3) Hepatotoxicity is considered to be one of the major challenges for drug development schemes. The liver is the primary organ for the metabolism or biotransformation of a given drug. To assess the hepatotoxicity of these compounds, the effects of Fisetin and analogue 3c on various hepatic enzymes was assessed.
# (§4) A lipid peroxidation assay was performed on microsomal liver fraction and determined in terms of TBARS formation. […] The modulatory effects of Fisetin and analogue 3c were determined on the specific activities of cytochrome b5 reductase (Cytb5R) and cytochrome P450 reductase (CytP450R), phase I enzyme of xenobiotic metabolism. Fisetin and analogue 3c caused reduction in the specific activity of cytochrome b5 reductase. Fisetin decreased Cytb5R specific activity by 66% whereas analogue 3c (50 mg/kg) caused a 36% reduction in specific activity (FIG. 7F). An increase in specific activity of CytP450R by Fisetin and analogue 3c was observed. Fisetin and analogue 3c (50 mg/kg) increased the specific activity by 15% and 13%, respectively (FIG. 7G). Next, the specific activities of phase II enzymes, glutathione S-transferase (GST) and reduced glutathione (GSH) were measured. […] Fisetin and analogue 3c (50 mg/kg) caused a decrease in specific activity of GSH by 34% and 7%, respectively (FIG. 7I). […] These analogues are therefore likely to be effective and safe phytochemicals.
# [9] = tested on: cytochrome P450 reductase (CytP450R); experiment: Hepatotoxicity: specific activity of cytochrome P450 reductase; type: in vivo, swiss albino mice; details: 50 mg/kg orally, two weeks
# Experimental: as §3, §4
# [10] = tested on: B(a)P-induced lung carcinogenesis; experiment: B(a)P-induced lung carcinogenesis, Initiation and Promotion Protocols; type: in vivo, Swiss albino mice
# Source text: To assess whether Fisetin and its 4-bromo-Fisetin analogue (Fisetin analogue 3c) have anticarcinogenesis activity and if any toxicity in terms of water and food consumption, and body weight, Benzo[a]pyrene [B(a)P] induced lung carcinogenesis in Swiss albino mice were employed in the study. Along with the antitumor activity of the agents, the body weight, food and water intake in different treatment groups were monitored on regular intervals and analysed.
# There were six different treatment groups in the study including, (1) control, (2) B(a)P, (3) Fisetin+B(a)P, (4) Fisetin analogue 3c+B(a)P, (5) B(a)P+Fisetin and (6) B(a)P+Fisetin analogue 3c.
# Groups 3 and 4 represent the Initiation Protocol (agents treatment started 1 week before carcinogen treatment and continued 1 week after the last dose of the carcinogen). Groups 5 and 6 represent the Promotion Protocol (agents treatment started after 3 weeks of the carcinogen treatment). The B(a)P was given orally twice a week for 4 weeks at 50 mg/kg body weight dose, whereas Fisetin and Fisetin analogue (3c) were administered orally at 25 mg/kg body weight thrice weekly (see FIG. 9).
structure (smiles),measurement,setting,value
"O=c1c(O)c(-c2ccc(Br)cc2)oc2cc(O)ccc12 [analogue 3c, 4′-Bromo-3,7-dihydroxyflavone]","cytotoxicity, in words","[1]; A549, MTT, 48 h",particularly active
same,activity against lung cancer cell lines compared with the parent Fisetin,[1]; A549 and/or H1299,substantially more active
same,cleaved caspase-3,[2],IC50 concentration of analogue 3c also increased cleaved caspase-3 to a significant amount; also recorded: higher concentration of analogue 3c and both the concentrations of analogue 3e increased the cleaved caspase-3 marginally
same,expression of p21,[2],increased the p21 expression significantly at higher concentration
same,expression of phospho Cdc-2,[2],IC50 concentration decreased the expression to some extent; also recorded: the higher concentrations decreased the phospho-Cdc-2 expression significantly
same,expression of phospho-EGFR,[2],minimally affected except for higher concentration of analogue 3c
same,expression of phospho-Erk1/2,[2],decreased the expression of phospho-Erk1/2 significantly at both the concentrations
same,expression of pro-apoptotic protein Bax,[2],increased the expression of Bax with much higher potential
same,total Stat-3 expression,[2],not affected
same,total form of Akt,[2],slightly downregulated
same,total form of Erk1/2,[2],not affected except for 3c in the higher concentration
same,G2/M phase arrest,[3]; 5 μM,induced cell cycle arrest
same,G2/M phase arrest,[3]; 10 & 20 μM,induced G2/M phase arrest in both the cell lines significantly
same,G2/M phase arrest,[4]; 5 μM,induced cell cycle arrest
same,G2/M phase arrest,[4]; 10 & 20 μM,induced G2/M phase arrest in both the cell lines significantly
same,apoptosis,[5]; IC50 concentration,13.4%
same,apoptosis,[5]; higher concentration 20 μM,17.2%
same,apoptosis,[6]; IC50 concentration,13.4%
same,apoptosis,[6]; higher concentration 10 μM,17.2%
same,"toxicity in mice, in words",[7],well tolerated in animal models; also recorded: does not show toxicity; also recorded: did not cause toxicity
same,MDA formation (TBARS),[8],No significant change
same,increase in specific activity of CytP450R,[9],13%
same,systemic toxicity during long-term application,[10]; 25 mg/kg orally thrice weekly,did not show any systemic toxicity
same,"tumorigenic features in lung histology (nucleus size, cytoplasmic content, alveoli)",[10]; 25 mg/kg orally thrice weekly,reversal of the tumorigenic features
same,"tumor incidence, histopathology of H&E stained serial sections",[10]; compared to the carcinogen treated group,less
same,decrease of area or size of lesions,[10]; initiation group,approximately 50%
same,"efficacy in inhibiting B(a)P induced lung carcinogenesis, in words",[10]; mouse model,efficacious; also recorded: more effective in reducing the number as well as the size of the lung tumor lesions as compared to the parent compound Fisetin
same,decrease of area or size of lesions,[10]; promotion group,more than 50%
same,reduction of total number of lesions,[10]; tumor initiation group,approximately 50%
same,"surface tumor lesion incidence, gross observation of lung","[10]; tumor initiation phase, B(a)P-only group 100% incidence",only one mouse showed surface tumor lesion out of five
same,"tumor lesions per mouse and total number of lesions per group, in words",[10]; versus B(a)P group,strongly reduced
